The record followed here is paper PMC5955599, “The HTLV-1 gp21 fusion peptide inhibits antigen specific T-cell activation in-vitro and in mice” (PLoS Pathogens, 2018).

Assay [1] has as its system MOG35-55–antigen specific T-cells. Description: T-bet and Gata3 expression detected by FACS. To be noted: peptide at 10μM, APC activation, n = 3. It counts as cell-based, mouse (C57Bl/6J). As to the method: (A-B) MOG35-55–antigen specific T-cells were activated by irradiated MOG35-55 presenting APCs, in the presence of the HTLV FP at 10μM. Total RNA was isolated 24 hours following activation and mRNA expression levels were determined by qRT-PCR. The values of each gene were normalized to Rpl13a as a housekeeping control. The HTLV FP reduces TBX21 (T-bet) mRNA expression and elevates GATA3 mRNA expression. The data is presented as arbitrary units. n≥3. (C-H) MOG35-55–antigen specific T-cells were activated by irradiated MOG35-55 presenting APCs, in the presence of either HTLV or HIV FP at 10μM. Samples were fixed in 4% PFA and stained with anti T-bet-APC and anti Gata3-FITC antibodies (C-D) 24, (E-F) 48 and (G-H) 72 hours following activation. Each time point is represented as cell count vs. APC or FITC fluorescence histogram. Analysis was performed using LSR-II flow cytometer (BD) and FlowJo cell analysis software (FlowJo, LLC). The HTLV FP reduces T-bet expression and elevates Gata3 expression. n = 3. One-way ANOVA was used for statistical analysis. ns, not significant; *P<0.05;** P<0.01.
Antigen-specific T-cells were plated onto round 12-well plates (10^6 cells/ well) and activated with 5x10^5 irradiated (25 gray) APC and 5μg/ml of MOG p35-55 in the presence or absence of relevant peptides. Cells were washed with PBS, blocked (5% Donkey serum, 2% BSA and 0.1% Triton in PBS) and fixed with 4% Paraformaldehyde (PFA) 24 hour following activation. Cells were then stained with Gata3-FITC and T-bet-APC fluorochrome-labeled monoclonal mouse antibodies (purchased from Miltenyi Biotec) according to Miltenyi Biotec protocols. Samples were then collected using LSR-II flow cytometer and analyzed with FlowJo cell analysis software.
For orientation: A flow cytometer gives signals particle by particle.

Assay [2] relates to primary mouse bone marrow derived macrophages (BMDM). Description: Cytokine secretion from TLR-ligand stimulated BM-derived macrophages (ELISA). To be noted: HTLV FP at 10μM, stimulated by LTA, LPS or PAM3CSK4 (1 μg/ml), n = 3. It counts as cell-based, mouse (C57Bl/6J). As to the method: Mouse Femora and tibiae BM cells were isolated from C57Bl/6J mice and cultured in RPMI medium containing FBS (10%), L-glutamine (1%), sodium pyruvate (1%), Pen-strep (1%), and 10 ng/ml recombinant CSF-1 (Peprotech). At day 3, half the medium was replaced, and on day 7, cells were used for in vitro assay, in which 2*10^5 cells were plated per well in a 24-well plate.
Mouse Femora and tibiae BM cells were collected and cultured in RPMI medium containing FBS (10%), L-glutamine (1%), sodium pyruvate (1%), Pen-strep (1%), and 10 ng/ml recombinant CSF-1 (Peprotech). On day 7, cells were stimulated by either (i) LTA, (ii) LPS, or (iii) PAM3CSK4 (1 μg/ml), in the presence of the HTLV FP at 10μM. Media was collected either 5 hours following activation (for TNF-α detection) or 22 hour following activation (for IL-6 detection) and secretion levels were determined according to standard protocols from R&D systems.
Supplementary file ppat.1007044.s002.tif: S2 Fig BM-derived macrophages activation is not affected by HTLV FP treatment. […] Media was collected either 5 hours following activation (for TNF-α detection) or 22 hour following activation (for IL-6 detection) and cytokines secretion was measured by ELISA assay. […]
(In an ELISA, binding on a coated surface is turned into a signal by an enzyme label.)

Assay [3] has as its system human peripheral T lymphocytes. Description: Cytokine secretion from primary human peripheral T-cells (ELISA). It counts as cell-based. To be noted: peptide at 10μM, CD3 and CD28 antibodies, media 48 hours following activation, n = 12. As to the method: Fig 4 Primary human T-cell activation is inhibited upon HTLV FP treatment. Human peripheral T lymphocytes were isolated from whole blood and activated using CD3 and CD28 antibodies, in the presence of HTLV FP or HTLV Scr at 10μM. Media was collected 48 hours following activation and secretion of IL2, IFN-γ and IL10 was measured by ELISA assay. […] One-way ANOVA was used for statistical analysis. *P<0.05; ***P<0.001; ns, not significant.
Human peripheral T lymphocytes were isolated from whole blood of healthy adult donors by dextran sedimentation and Ficoll (Sigma) gradient separation followed by depletion of B cells using nylon wool column (Unisorb), to which B cells were adsorbed. Cells were incubated in a complete RPMI growth medium (500 ml RPMI Ca/Mg + heat inactivated FCS (10% final) + 5 ml 200 mM L-Glu (2 mM final) +5 ml […] Na pyruvate (1 mM final) + 5 ml Pen Strep antibiotics) for more than 2 h, and then non-adherent cells were harvested and transferred to a new plate, resulting in ~90% CD3+ T lymphocytes. Cells were then used for in vitro assay, in which […] were plated per well in a 96-well plate and activated using CD3 and CD28 antibodies.
Human peripheral T lymphocytes were isolated from whole blood of healthy donors and were incubated in a complete RPMI growth medium (500 ml RPMI Ca/Mg + heat inactivated FCS (10% final) + 5 ml 200 mM L-Glu (2 mM final) +5 ml […] Na pyruvate (1 mM final) + 5 ml Pen Strep antibiotics). Cells were activated using CD3 and CD28 antibodies, in the presence of relevant peptides at 10μM. Media was collected 48 hours following activation and secretion of IL2 and IFN-γ was determined according to standard protocols from R&D systems.

Regarding “AVPVAVWLVSALAMGAGVAGGITGSMSLASGKS [HTLV FP, gp21 fusion peptide of HTLV-1, MT-2 isolate]”, in assay [1] (24 hours following activation), the “Gata3 expression (protein), 24 hours” value is listed as “elevated Gata3 expression” and the “T-bet expression (protein), 24 hours” value is given as “reduced T-bet expression”. Further, in assay [1] (48 hours following activation), the “Gata3 expression (protein), 48 hours” value is reported as “elevated Gata3 expression” and the “T-bet expression (protein), 48 hours” value was “reduced T-bet expression”. For the same sequence, in assay [1] (72 hours following activation), the “Gata3 expression (protein), 72 hours” value was “elevated Gata3 expression” and the “T-bet expression (protein), 72 hours” value is reported as “no difference was observed”. Also, the “TNFα secretion from BMDM” value in assay [2] (media 5 hours following activation) is given as “had no effect on cytokine secretion”. Moreover, in assay [2] (media 22 hour following activation), the “IL6 secretion from BMDM” value is recorded as “had no effect on cytokine secretion”. For the same sequence, in assay [3], the “IFN-γ secretion, human T-cells” value was “significant reduction in IFN-γ and IL2 secretion”; the “IL2 secretion, human T-cells” value was “significant reduction in IFN-γ and IL2 secretion”; the “IL10 secretion, human T-cells” value was “elevation in IL10 secretion”.
